Test results reported in patent US9365619B2, “IgG-binding peptide and method for detecting and purifying IgG using same” (Otsuka Chemical Co., Ltd., priority 2011, dated 2016).
pKd: −log10 of the molar value. Where two headings read alike, the source gives them in different places. Bridge positions count the residues as written; N and C are the ends. Peptide text beside a SMILES is read from it.

Biological target: human IgG
Assay: Surface plasmon resonance (SPR) analysis of synthetic peptide binding to human IgG
Settings: for affinity compared with the original peptide, in words: compared with GFc-C35-3/15; for affinity compared with the parent peptide, in words: compared with GFc-C35-3/15 (T7H, N8R)
Description: In order to narrow down the amino acid region to be studied, a peptide in which one amino acid was deleted from each end of GFc-C35 (GFc-C35-2/16) and a peptide in which two amino acids were deleted from each end of CFc-C35 (GFc-C35-3/15) were synthesized. Among these peptides, based on the GFc-C35-3/15 synthetic peptide, the effect of the introduction of amino acid mutations on affinity was evaluated. That is, the contribution of each amino acid substitution to affinity was evaluated by synthesizing peptides substituted with frequently or occasionally observed amino acids obtained from the phage libraries and subjecting the resulting synthetic peptides to binding analysis.
Based on the synthetic peptide C35A, peptides substituted with amino acids observed at high frequency in the aforementioned phage libraries were synthesized by introducing amino acid mutations, and in a similar manner to the above, their binding to human IgG was analyzed by surface plasmon resonance (SPR) analysis to evaluate the contribution of each amino acid substitution to affinity.

[1] = SPR, synthetic peptide binding to human IgG, read-out: Kd

Compound	pKd [1]	affinity compared with the original peptide, in words	affinity compared with the parent peptide, in words	pKd (SPR sensorgram analysis, human IgG, read-out: affinity (Kd value))
CC(C)C[C@@H]1NC(=O)[C@H](CCC(=O)O)NC(=O)CNC(=O)[C@H](CC(N)=O)NC(=O)[C@H]([C@@H](C)O)NC(=O)[C@H](Cc2ccc(O)cc2)NC(=O)[C@H]([C@@H](C)O)NC(=O)[C@@H](NC(=O)[C@@H](N)CC(=O)O)CSSC[C@@H](C(=O)N[C@H](C(N)=O)[C@@H](C)O)NC(=O)[C@H](Cc2c[nH]c3ccccc23)NC(=O)[C@H](C(C)C)NC1=O [GFc-C35-3/15 (N10E), DCTYTNGELVWCT] (H-DCTYTNGELVWCT-NH2; disulfide 2-12; N-terminus and C-terminus assumed)	4.59	higher affinity than the original peptide		
CSCC[C@@H]1NC(=O)[C@H](CC(N)=O)NC(=O)CNC(=O)[C@H](CC(N)=O)NC(=O)[C@H]([C@@H](C)O)NC(=O)[C@H](Cc2ccc(O)cc2)NC(=O)[C@H]([C@@H](C)O)NC(=O)[C@@H](NC(=O)[C@@H](N)CC(=O)O)CSSC[C@@H](C(=O)N[C@H](C(N)=O)[C@@H](C)O)NC(=O)[C@H](Cc2c[nH]c3ccccc23)NC(=O)[C@H](C(C)C)NC1=O [GFc-C35-3/15 (L11M), DCTYTNGNMVWCT] (H-DCTYTNGNMVWCT-NH2; disulfide 2-12)	3.55	a decrease in affinity		
CC(C)C[C@@H]1NC(=O)[C@H](CC(=O)O)NC(=O)CNC(=O)[C@H](CC(N)=O)NC(=O)[C@H]([C@@H](C)O)NC(=O)[C@H](Cc2ccc(O)cc2)NC(=O)[C@H]([C@@H](C)O)NC(=O)[C@@H](NC(=O)[C@@H](N)CC(=O)O)CSSC[C@@H](C(=O)N[C@H](C(N)=O)[C@@H](C)O)NC(=O)[C@H](Cc2c[nH]c3ccccc23)NC(=O)[C@H](C(C)C)NC1=O [GFc-C35-3/15 (N10D), DCTYTNGDLVWCT] (H-DCTYTNGDLVWCT-NH2; disulfide 2-12)	4.10	more or less improved affinity		
CC(C)C[C@@H]1NC(=O)[C@H](CCCNC(=N)N)NC(=O)CNC(=O)[C@H](CC(N)=O)NC(=O)[C@H]([C@@H](C)O)NC(=O)[C@H](Cc2ccc(O)cc2)NC(=O)[C@H]([C@@H](C)O)NC(=O)[C@@H](NC(=O)[C@@H](N)CC(=O)O)CSSC[C@@H](C(=O)N[C@H](C(N)=O)[C@@H](C)O)NC(=O)[C@H](Cc2c[nH]c3ccccc23)NC(=O)[C@H](C(C)C)NC1=O [GFc-C35-3/15 (N10R), DCTYTNGRLVWCT] (H-DCTYTNGRLVWCT-NH2; disulfide 2-12)	4.38	higher affinity than the original peptide		
CC(C)C[C@@H]1NC(=O)[C@H](CCC(=O)O)NC(=O)CNC(=O)[C@H](CCCNC(=N)N)NC(=O)[C@H](Cc2c[nH]cn2)NC(=O)[C@H](Cc2ccc(O)cc2)NC(=O)[C@H](C)NC(=O)[C@@H](NC(=O)[C@@H](N)CCCNC(=N)N)CSSC[C@@H](C(=O)N[C@@H](CO)C(N)=O)NC(=O)[C@H](Cc2c[nH]c3ccccc23)NC(=O)[C@H](C(C)C)NC1=O [RCAYHRGELVWCS] (H-RCAYHRGELVWCS-NH2; disulfide 2-12)				6.83
CC(C)C[C@@H]1NC(=O)[C@H](CC(N)=O)NC(=O)CNC(=O)[C@H](CC(N)=O)NC(=O)[C@H]([C@@H](C)O)NC(=O)[C@H](Cc2c[nH]c3ccccc23)NC(=O)[C@H]([C@@H](C)O)NC(=O)[C@@H](NC(=O)[C@@H](N)CC(=O)O)CSSC[C@@H](C(=O)N[C@H](C(N)=O)[C@@H](C)O)NC(=O)[C@H](Cc2c[nH]c3ccccc23)NC(=O)[C@H](C(C)C)NC1=O [GFc-C35-3/15 (Y6W), DCTWTNGNLVWCT] (H-DCTWTNGNLVWCT-NH2; disulfide 2-12)	4.30	increased affinity		
CC(C)C[C@@H]1NC(=O)[C@H](CCC(N)=O)NC(=O)CNC(=O)[C@H](CC(N)=O)NC(=O)[C@H]([C@@H](C)O)NC(=O)[C@H](Cc2ccc(O)cc2)NC(=O)[C@H]([C@@H](C)O)NC(=O)[C@@H](NC(=O)[C@@H](N)CC(=O)O)CSSC[C@@H](C(=O)N[C@H](C(N)=O)[C@@H](C)O)NC(=O)[C@H](Cc2c[nH]c3ccccc23)NC(=O)[C@H](C(C)C)NC1=O [GFc-C35-3/15 (N10Q), DCTYTNGQLVWCT] (H-DCTYTNGQLVWCT-NH2; disulfide 2-12; N-terminus and C-terminus assumed)	3.80	almost equal affinity		
CC(C)C[C@@H]1NC(=O)[C@H](CC(N)=O)NC(=O)CNC(=O)[C@H](CC(N)=O)NC(=O)[C@H]([C@@H](C)O)NC(=O)[C@H](Cc2ccc(O)cc2)NC(=O)[C@H]([C@@H](C)O)NC(=O)[C@@H](NC(=O)[C@@H](N)CCCNC(=N)N)CSSC[C@@H](C(=O)N[C@H](C(N)=O)[C@@H](C)O)NC(=O)[C@H](Cc2c[nH]c3ccccc23)NC(=O)[C@H](C(C)C)NC1=O [GFc-C35-3/15 (D3R), RCTYTNGNLVWCT] (H-RCTYTNGNLVWCT-NH2; disulfide 2-12)	4.16	an increase in affinity		
CC(C)C[C@@H]1NC(=O)[C@H](CC(N)=O)NC(=O)CNC(=O)[C@H](CC(N)=O)NC(=O)[C@H](CO)NC(=O)[C@H](Cc2ccc(O)cc2)NC(=O)[C@H]([C@@H](C)O)NC(=O)[C@@H](NC(=O)[C@@H](N)CC(=O)O)CSSC[C@@H](C(=O)N[C@H](C(N)=O)[C@@H](C)O)NC(=O)[C@H](Cc2c[nH]c3ccccc23)NC(=O)[C@H](C(C)C)NC1=O [GFc-C35-3/15 (T7S), DCTYSNGNLVWCT] (H-DCTYSNGNLVWCT-NH2; disulfide 2-12)	4.59			
CC[C@H](C)[C@@H]1NC(=O)[C@H](CC(C)C)NC(=O)[C@H](CC(N)=O)NC(=O)CNC(=O)[C@H](CC(N)=O)NC(=O)[C@H]([C@@H](C)O)NC(=O)[C@H](Cc2ccc(O)cc2)NC(=O)[C@H]([C@@H](C)O)NC(=O)[C@@H](NC(=O)[C@@H](N)CC(=O)O)CSSC[C@@H](C(=O)N[C@H](C(N)=O)[C@@H](C)O)NC(=O)[C@H](Cc2c[nH]c3ccccc23)NC1=O [GFc-C35-3/15 (V12I), DCTYTNGNLIWCT] (H-DCTYTNGNLIWCT-NH2; disulfide 2-12)	4.92			

Continued by rising pKd [1], values first:

pKd [1]	affinity compared with the original peptide, in words	affinity compared with the parent peptide, in words	pKd (SPR sensorgram analysis, human IgG, read-out: affinity (Kd value))	Compound
5.32		reduced affinity		CC[C@H](C)[C@@H]1NC(=O)[C@H](CC(C)C)NC(=O)[C@H](CC(N)=O)NC(=O)CNC(=O)[C@H](CCCNC(=N)N)NC(=O)[C@H](Cc2c[nH]cn2)NC(=O)[C@H](Cc2ccc(O)cc2)NC(=O)[C@H]([C@@H](C)O)NC(=O)[C@@H](NC(=O)[C@@H](N)CC(=O)O)CSSC[C@@H](C(=O)N[C@H](C(N)=O)[C@@H](C)O)NC(=O)[C@H](Cc2c[nH]c3ccccc23)NC1=O [GFc-C35-3/15 (T7H, N8R, V12I), DCTYHRGNLIWCT] (H-DCTYHRGNLIWCT-NH2; disulfide 2-12)
5.52				CC(C)C[C@@H]1NC(=O)[C@H](CC(N)=O)NC(=O)CNC(=O)[C@H](CC(N)=O)NC(=O)[C@H](Cc2c[nH]cn2)NC(=O)[C@H](Cc2ccc(O)cc2)NC(=O)[C@H]([C@@H](C)O)NC(=O)[C@@H](NC(=O)[C@@H](N)CC(=O)O)CSSC[C@@H](C(=O)N[C@H](C(N)=O)[C@@H](C)O)NC(=O)[C@H](Cc2c[nH]c3ccccc23)NC(=O)[C@H](C(C)C)NC1=O [GFc-C35-3/15 (T7H), DCTYHNGNLVWCT] (H-DCTYHNGNLVWCT-NH2; disulfide 2-12)
5.70		reduced affinity		CC(C)C[C@@H]1NC(=O)[C@H](CC(N)=O)NC(=O)CNC(=O)[C@H](CCCNC(=N)N)NC(=O)[C@H](Cc2c[nH]cn2)NC(=O)[C@H](Cc2c[nH]c3ccccc23)NC(=O)[C@H]([C@@H](C)O)NC(=O)[C@@H](NC(=O)[C@@H](N)CC(=O)O)CSSC[C@@H](C(=O)N[C@H](C(N)=O)[C@@H](C)O)NC(=O)[C@H](Cc2c[nH]c3ccccc23)NC(=O)[C@H](C(C)C)NC1=O [GFc-C35-3/15 (T7H, N8R, Y6W), DCTWHRGNLVWCT] (H-DCTWHRGNLVWCT-NH2; disulfide 2-12)
7.55				CC(C)C[C@@H]1NC(=O)[C@H](CCC(=O)O)NC(=O)CNC(=O)[C@H](CCCNC(=N)N)NC(=O)[C@H](Cc2c[nH]cn2)NC(=O)[C@H](Cc2ccc(O)cc2)NC(=O)[C@H](C)NC(=O)[C@@H](NC(=O)[C@H](CO)NC(=O)[C@@H]2CCCN2C(=O)CN)CSSC[C@@H](C(=O)N[C@H](C(=O)N[C@@H](Cc2ccccc2)C(=O)N[C@@H](Cc2c[nH]cn2)C(N)=O)[C@@H](C)O)NC(=O)[C@H](Cc2c[nH]c3ccccc23)NC(=O)[C@H](C(C)C)NC1=O [C35A (D3S), GPSCAYHRGELVWCTFH] (H-GPSCAYHRGELVWCTFH-NH2; disulfide 4-14)
7.89				CC(C)C[C@@H]1NC(=O)[C@H](CCC(=O)O)NC(=O)CNC(=O)[C@H](CCCNC(=N)N)NC(=O)[C@H](Cc2c[nH]cn2)NC(=O)[C@H](Cc2ccc(O)cc2)NC(=O)[C@H](C)NC(=O)[C@@H](NC(=O)[C@H](CC(=O)O)NC(=O)[C@H](CC(=O)O)NC(=O)[C@@H](N)CO)CSSC[C@@H](C(=O)N[C@H](C(=O)N[C@@H](Cc2ccccc2)C(=O)N[C@@H](Cc2ccc(O)cc2)C(N)=O)[C@@H](C)O)NC(=O)[C@H](Cc2c[nH]c3ccccc23)NC(=O)[C@H](C(C)C)NC1=O [C35A (P2D, H17Y), SDDCAYHRGELVWCTFY] (H-SDDCAYHRGELVWCTFY-NH2; disulfide 4-14)
8.03				CC(C)C[C@@H]1NC(=O)[C@H](CCC(=O)O)NC(=O)CNC(=O)[C@H](CCCNC(=N)N)NC(=O)[C@H](Cc2c[nH]cn2)NC(=O)[C@H](Cc2ccc(O)cc2)NC(=O)[C@H](C)NC(=O)[C@@H](NC(=O)[C@H](CC(=O)O)NC(=O)[C@@H]2CCCN2C(=O)[C@@H](N)CO)CSSC[C@@H](C(=O)N[C@H](C(=O)N[C@@H](Cc2ccccc2)C(=O)N[C@@H](Cc2c[nH]cn2)C(N)=O)[C@@H](C)O)NC(=O)[C@H](Cc2c[nH]c3ccccc23)NC(=O)[C@H](C(C)C)NC1=O [C35A (G1S), SPDCAYHRGELVWCTFH] (H-SPDCAYHRGELVWCTFH-NH2; disulfide 4-14)
